From the supplement of paper PMC11061612

What was measured:
[1] = tested on: BxPC-3 (Pancreatic Carcinoma); experiment: Bliss excess, mean over the matrix (fraction); higher = more synergy
Method in brief: (§1)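 Cell lines grown in DMEM/F12 or RPMI with 10% FBS were plated in 1536-well plates and held 24 hours at 37°C, 5% CO2 before 72 hours of exposure to two-drug dose matrices, with DMSO typically at 0.2%. CellTiter-Glo 2.0 luminescence gave viability, which was converted to inhibition. Vehicle wells were set to 0 and blank wells to 1. Combination Emax is the second-highest inhibition in the matrix, and Bliss excess is the observed combination effect minus the expected EA + EB − EA·EB, where EA and EB are the single-agent effects.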

[2] = tested on: C-33-A (Cervical Carcinoma); experiment: as above
Method in brief: as §1

GAK (Melanoma) = experiment: as above
Method in brief: as §1

KALS-1 (Glioblastoma) = experiment: as above
Method in brief: as §1

[3] = tested on: KP-4 (Pancreatic Carcinoma); experiment: as above
Method in brief: as §1

[4] = tested on: LCLC-103H (Non-Small Cell Lung Carcinoma); experiment: as above
Method in brief: as §1

[5] = tested on: MDA-MB-415 (Breast Carcinoma); experiment: as above
Method in brief: as §1

[6] = tested on: MM1S (Plasma Cell Myeloma); experiment: as above
Method in brief: as §1

[7] = tested on: NAMALWA (Burkitt's Lymphoma); experiment: as above
Method in brief: as §1

NB1 (Neuroblastoma) [8] = experiment: as above
Method in brief: as §1

[9] = tested on: NCI-H1876 (Small Cell Lung Carcinoma); experiment: as above
Method in brief: as §1

[10] = tested on: NCI-H1963 (Small Cell Lung Carcinoma); experiment: as above
Method in brief: as §1

NCI-H2373 (Mesothelioma) = experiment: as above
Method in brief: as §1

[11] = tested on: P30-OHK (B-Lymphoblastic Leukemia); experiment: as above
Method in brief: as §1

[12] = tested on: SCC-4 (Oral Cavity Carcinoma); experiment: as above
Method in brief: as §1

[13] = tested on: SNU-423 (Hepatocellular Carcinoma); experiment: as above
Method in brief: as §1

[14] = tested on: ZR-75-30 (Breast Carcinoma); experiment: as above
Method in brief: as §1

[15] = tested on: LCLC-103H (Non-Small Cell Lung Carcinoma); experiment: combination Emax (second highest fraction inhibited in the dose matrix, 72 h); higher = more inhibition; extreme values may be limits of the assay
Method in brief: as §1

[16] = tested on: MONO-MAC-6 (Acute Myeloid Leukemia); experiment: as above
Method in brief: as §1

NB1 (Neuroblastoma) [17] = experiment: as above
Method in brief: as §1
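Throughout, for Bliss excess, mean over the matrix: after 72 h of two-drug dosing.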

| SMILES | Bliss excess [1] | Bliss excess [2] | Bliss excess (GAK (Melanoma)) | Bliss excess (KALS-1 (Glioblastoma)) | Bliss excess [3] | Bliss excess [4] | Bliss excess [5] | Bliss excess [6] | Bliss excess [7] | Bliss excess (NB1 (Neuroblastoma) [8]) | Bliss excess [9] | Bliss excess [10] | Bliss excess (NCI-H2373 (Mesothelioma)) | Bliss excess [11] | Bliss excess [12] | Bliss excess [13] | Bliss excess [14] | combination Emax [15] | combination Emax [16] | combination Emax (NB1 (Neuroblastoma) [17]) |
| --- | --- | --- | --- | --- | --- | --- | --- | --- | --- | --- | --- | --- | --- | --- | --- | --- | --- | --- | --- | --- |
| CC(=O)c1c(C)c2cnc(Nc3ccc(N4CCNCC4)cn3)nc2n(C2CCCC2)c1=O [Palbociclib] + CC1(C)CCC(CN2CCN(c3ccc(C(=O)NS(=O)(=O)c4ccc(NCC5CCOCC5)c([N+](=O)[O-])c4)c(Oc4cnc5[nH]ccc5c4)c3)CC2)=C(c2ccc(Cl)cc2)C1 [Venetoclax] (first compound max 10 µM, 7x7, partner max 1 µM) | -0.0429 | -0.0474 | -0.034 | -0.0396 | -0.104 | -0.0083 | -0.0338 | 0.0353 | -0.0648 | -0.0154 | 0.0162 | 0.226 | -0.0421 | 0.126 | -0.0637 | -0.034 | -0.0434 | 0.251 | 0.823 | 0.345 |
| CC(=O)c1c(C)c2cnc(Nc3ccc(N4CCNCC4)cn3)nc2n(C2CCCC2)c1=O [Palbociclib] + Cc1c2c(nn1C)CSCc1cc(n(C)n1)CSc1cc(c3ccccc3c1)OCCCc1c(C(=O)O)n(C)c3c-2c(Cl)ccc13 [AZD5991] (first compound max 10 µM, 7x7, partner max 1 µM) | -0.0528 | -0.0163 | -0.0234 | -0.0609 | -0.0249 | -0.0151 | -0.113 | -0.0482 | -0.0139 | -0.061 | 0.0191 | -0.0047 | -0.0396 | 0.0418 | -0.0394 | -0.0349 | -0.0372 | 0.329 | 1 | 0.529 |
| CC(=O)c1c(C)c2cnc(Nc3ccc(N4CCNCC4)cn3)nc2n(C2CCCC2)c1=O [Palbociclib] + Cn1cnc2c(F)c(Nc3ccc(Br)cc3Cl)c(C(=O)NOCCO)cc21 [Selumetinib] (first compound max 10 µM, 7x7, partner max 10 µM) | -0.0238 | 0.0164 | 0.0221 | -0.0353 | -0.0235 | 0.0012 | -0.0588 | -0.0061 | -0.0123 | -0.0669 | 0.0495 | 0.005 | -0.0239 | -0.0089 | 0.0091 | -0.0141 | -0.0509 | 0.248 | 0.669 | 0.376 |
| COc1cccc(OCCCN)c1-c1cc(Nc2cnc(C#N)cn2)n[nH]1 [Prexasertib] + C=CCn1c(=O)c2cnc(Nc3ccc(N4CCN(C)CC4)cc3)nc2n1-c1cccc(C(C)(C)O)n1 [AZD1775] (first compound max 1 µM, partner max 1 µM) | -0.0074 | 0.0983 | 0.0832 | -0.0436 | 0.0861 | 0.0284 | 0.0729 | 0.0356 | 0.06 | 0.0693 | 0.0393 | 0.068 | 0.0601 | 0.0398 | -0.0358 | 0.128 | -0.0353 | 0.854 | 1 | 0.906 |
| COc1cccc(OCCCN)c1-c1cc(Nc2cnc(C#N)cn2)n[nH]1 [Prexasertib] + CCc1c2c(nc3ccc(O)cc13)-c1cc3c(c(=O)n1C2)COC(=O)[C@]3(O)CC [SN-38] (first compound max 1 µM, 7x7, partner max 0.3 µM) | 0.0111 | 0.0583 | 0.0087 | 0.0399 | 0.0454 | 0.081 | 0.106 | -0.0065 | -0.0197 | -0.0529 | 0.0067 | 0.0138 | 0.0224 | -0.0164 | 0.0021 | 0.0169 | -0.0408 | 0.932 | 1 | 0.912 |
| COc1cccc(OCCCN)c1-c1cc(Nc2cnc(C#N)cn2)n[nH]1 [Prexasertib] + CN(C)CCCOc1ccc(-c2ccc3ncc4c(c3c2)n(C2CCOCC2)c(=O)n4C)cn1 [AZD0156] (first compound max 1 µM, 7x7, partner max 1 µM) | -0.0582 | -0.0158 | 0.0668 | -0.0669 | 0 | -0.0391 | -0.0099 | -0.0718 | -0.0133 | 0.142 | -0.044 | -0.0253 | 0.0329 | -0.045 | -0.0323 | -0.0711 | -0.0512 | 0.718 | 0.963 | 0.911 |
| COc1cccc(OCCCN)c1-c1cc(Nc2cnc(C#N)cn2)n[nH]1 [Prexasertib] + C[C@@H]1COCCN1C2=NC(=NC(=C2)C3(CC3)[S@](=N)(=O)C)C4=C5C=CNC5=NC=C4 [AZD6738] (first compound max 1 µM, 7x7, partner max 10 µM) | -0.0535 | 0.0091 | -0.0092 | -0.0557 | 0.0072 | 0.0242 | -0.0055 | -0.0953 | -0.0052 | 0.0001 | 0.0095 | -0.0231 | -0.0628 | -0.0333 | -0.0323 | 0 | -0.0102 | 0.738 | 0.993 | 0.773 |
| COc1cccc(OCCCN)c1-c1cc(Nc2cnc(C#N)cn2)n[nH]1 [Prexasertib] + Cc1cc2ncnn2cc1Nc1ncc2c(n1)n(C1CCOCC1)c(=O)n2C [AZD7648] (first compound max 1 µM, 7x7, partner max 10 µM) | -0.0908 | -0.0283 | -0.0028 | -0.0363 | 0.0031 | -0.0791 | -0.0331 | -0.0108 | 0.0087 | 0.0251 | -0.0713 | -0.0075 | -0.0099 | -0.0301 | -0.0267 | -0.0244 | -0.0463 | 0.725 | 0.976 | 0.78 |
| COc1cccc(OCCCN)c1-c1cc(Nc2cnc(C#N)cn2)n[nH]1 [Prexasertib] + O=C(c1cc(Cc2n[nH]c(=O)c3ccccc23)ccc1F)N1CCN(C(=O)C2CC2)CC1 [Olaparib] (first compound max 1 µM, 7x7, partner max 10 µM) | -0.0706 | -0.0329 | -0.0159 | -0.115 | 0.0261 | -0.0572 | 0.0074 | -0.0683 | -0.044 | -0.0411 | -0.0338 | -0.0327 | 0.001 | -0.0074 | -0.109 | -0.0011 | -0.108 | 0.78 | 0.976 | 0.561 |
| COc1cc2c(cc1OCCCCCOc1cc3c(cc1OC)C(=O)N1C=C(C)C[C@H]1C=N3)N=C[C@@H]1CC(C)=CN1C2=O [SG3199] + O=C(c1cc(Cc2n[nH]c(=O)c3ccccc23)ccc1F)N1CCN(C(=O)C2CC2)CC1 [Olaparib] (first compound max 0.001 µM, 7x7, partner max 10 µM) | -0.0403 | -0.0476 | -0.0238 | -0.0155 | -0.0366 | -0.0506 | -0.0333 | 0.0663 | 0.0018 | -0.0418 | -0.0267 | 0.025 | 0.0054 | -0.0422 | -0.0545 | -0.0238 | -0.001 | 0.0713 | 0.234 | 0.187 |
| CCc1c2c(nc3ccc(O)cc13)-c1cc3c(c(=O)n1C2)COC(=O)[C@]3(O)CC [SN-38] + CN(C)CCCOc1ccc(-c2ccc3ncc4c(c3c2)n(C2CCOCC2)c(=O)n4C)cn1 [AZD0156] (first compound max 0.3 µM, 7x7, partner max 1 µM) | 0.0025 | 0.0058 | 0.0182 | 0.0189 | 0.0541 | 0.0263 | -0.0262 | -0.0498 | 0.0402 | -0.0476 | -0.0111 | 0.0847 | -0.0037 | 0.0969 | 0.0021 | -0.0165 | -0.194 | 0.486 | 1 | 0.83 |
| C[C@@H](c1ccc2nccn2c1)n1nnc2ncc(-c3cnn(C)c3)nc21 [Savolitinib] + CC1(C)CCC(CN2CCN(c3ccc(C(=O)NS(=O)(=O)c4ccc(NCC5CCOCC5)c([N+](=O)[O-])c4)c(Oc4cnc5[nH]ccc5c4)c3)CC2)=C(c2ccc(Cl)cc2)C1 [Venetoclax] (first compound max 1 µM, 7x7, partner max 1 µM) | -0.0371 | -0.0466 | -0.0762 | -0.0571 | -0.0556 | -0.0518 | -0.0258 | -0.0663 | -0.0098 | -0.0516 | -0.0486 | -0.0237 | -0.0512 | -0.0198 | -0.0649 | -0.0205 | -0.0361 | 0.146 | 0.213 | 0.0333 |
| C[C@@H](c1ccc2nccn2c1)n1nnc2ncc(-c3cnn(C)c3)nc21 [Savolitinib] + Cc1c2c(nn1C)CSCc1cc(n(C)n1)CSc1cc(c3ccccc3c1)OCCCc1c(C(=O)O)n(C)c3c-2c(Cl)ccc13 [AZD5991] (first compound max 1 µM, 7x7, partner max 1 µM) | -0.0496 | -0.0084 | 0.0201 | -0.0411 | -0.0204 | -0.0417 | -0.0462 | 0.021 | -0.05 | -0.0355 | 0.0044 | -0.0134 | -0.0618 | 0.0046 | -0.0295 | -0.0364 | -0.0388 | 0.211 | 0.997 | 0.175 |
| Cn1cnc2c(F)c(Nc3ccc(Br)cc3Cl)c(C(=O)NOCCO)cc21 [Selumetinib] + C=CCn1c(=O)c2cnc(Nc3ccc(N4CCN(C)CC4)cc3)nc2n1-c1cccc(C(C)(C)O)n1 [AZD1775] (first compound max 10 µM, partner max 1 µM) | 0.0243 | 0.021 | -0.008 | -0.0755 | -0.0377 | -0.0316 | -0.0754 | -0.0433 | -0.0104 | -0.0731 | -0.021 | -0.0834 | -0.101 | -0.0789 | -0.0376 | -0.0078 | -0.0587 | 0.43 | 0.743 | 0.84 |
| Cn1cnc2c(F)c(Nc3ccc(Br)cc3Cl)c(C(=O)NOCCO)cc21 [Selumetinib] + CC(C)n1c(=O)n(C)c2cnc3cc(F)c(-c4ccc(OCCCN5CCCCC5)nc4)cc3c21 [AZD1390] (first compound max 10 µM, 7x7, partner max 0.3 µM) | -0.0518 | 0.0134 | -0.0415 | -0.0115 | -0.0571 | -0.0154 | -0.047 | 0.0258 | -0.0102 | -0.0646 | 0.0068 | 0.0154 | -0.0044 | -0.0043 | -0.0669 | -0.0026 | -0.044 | 0.138 | 0.231 | 0.127 |
